From patent publication US8148360B2, “Supramolecular metallic complexes exhibiting both DNA binding and photocleavage” (Virginia Tech Intellectual Properties, Inc., priority 2006, dated 2012)

Legend:
[1] = system: pUC18 circular plasmid DNA; assay: DNA binding by agarose gel electrophoresis (migration shift of plasmid); conditions: for DNA binding: 10:1 metal complex:DNA base pair, with and without O2
Description: (§1) FIG. 6. DNA binding and photocleavage by [{(bpy)2Ru(dpp)}2Ru(dpp)PtCl2](PF6)6 (Ru3Pt) assayed with 0.8% agarose gel electrophoresis post stained with ethidium bromide using circular plasmid pUC18 DNA with comparison to cis-[Pt(NH3)2Cl2] (Cisplatin) and [{(bpy)2Ru(dpp)}2Ru(dpp)](PF6)6 (Ru3) (bpy=2,2′-bipyridine, dpp=2,3-bis(2-pyridyl)pyrazine). Lanes λ are the molecular weight standards (23, 9.4, 6.6, 4.4, 2.3, and 2.0 kb), lanes C are the DNA controls showing mostly form I and minor form II pUC18 DNA. The cisplatin lane 1 is a 5:1 base pair (BP):metal complex (MC) and lane 2 a 20:1 BP:MC incubated for 1 hour at 37° C. The Ru3 lane 1 is a 20:1 BP:MC incubated for 1 hour at 37° C. The Ru3Pt lane 1 is 20:1 BP:MC kept in the dark at room temperature, lane 2 is 20:1 BP:MC incubated for 1 hour in the dark at 37° C., lane 3 is 20:1 BP:MC photolyzed with 450 nm-1000 nm light for 1 hour under atmospheric conditions, lane 4 is 20:1 BP:MC photolyzed with 450 nm-1000 nm light for 1 hour under argon.
(§2) FIG. 9. DNA binding and photocleavage by [{(bpy)2Ru(dpp)}2Ru(dpq)PtCl2](PF6)6. Lane 1 is the molecular weight standard, lane C is the pUC18 DNA plasmid control, lane 25° is 10:1 metal complex:DNA base pair incubated at 25° C., lane 37° is the 10:1 ratio incubated at 37° C., Ar* is the 10:1 ratio photolyzed for 1 hour under Ar, lane O2* is the 10:1 ratio photolyzed under ambient atmosphere.
as §2, with “10.” for “9.”, “[{(bpy)2Os(dpp)}2Ru(dpq)PtCl2](PF6)6.” for “[{(bpy)2Ru(dpp)}2Ru(dpq)PtCl2](PF6)6.”
(§3) The DNA binding and photocleavage ability of the exemplary complex, [{(bpy)2Ru(dpp)}2Ru(dpp)PtCl2](PF6)6, has been investigated using gel electrophoresis. The cis-dichloroplatinum(II) moiety is designed to allow the complex to bind covalently to DNA. The Ru polyazine units are designed to allow the complex to undergo sensitization of molecular oxygen leading to DNA photocleavage. The presence of the cis-dichloroplatinum(II) sub-unit delivers the Ru polyazine sub-unit to its target prior to optical excitation. DNA interactions of [{(bpy)2Ru(dpp)}2Ru(dpp)PtCl2](PF6)6 were compared to a binding analyses of Ru3 and cisplatin using gel electrophoresis and pUC18 circular plasmid DNA, (2686 BP, Bayou Biolabs) post-stained with ethidium bromide. Lanes λ are the molecular weight standards (23, 9.4, 6.6, 4.4, 2.3, and 2.0 kb). Lanes C are the pUC18 DNA controls, showing primarily the supercoiled (form I) and minor nicked (form II) forms of the circular pUC18 plasmid. The lane 1 for cisplatin is a 5:1 base pairs (BP):metal complex (MC) and lane 2 is a 20:1 BP:MC solution incubated at 37° C. for 1 hr. […] Lane 1 of “Ru3Pt” is the 20:1 DNA BP: MC solution of [{(bpy)2Ru(dpp)}2Ru(dpp)PtCl2](PF6)6 incubated at 37° C. for 1 hr. […] Lane 4 is a 20:1 BP:MC solution photolyzed at λ>450 nm for 1 hour, under argon.
A mixed-metal complex, [{(bpy)2Ru(dpp)}2Ru(dpq)PtCl2](PF6)6, was synthesized using bridging ligands dpq (2,3-bis(2-pyridyl)quinoxaline), and dpp (the ligand described in Example 1). The complex was tested for its ability to bind DNA and to photocleave the DNA in an O2 dependent manner by incubating the complex with DNA in the ambient atmosphere and under argon. […]

[2] = system: pUC18 circular plasmid DNA; assay: DNA photocleavage by agarose gel electrophoresis (form I to form II conversion) after visible light photolysis; assay type: biochemical; conditions: for DNA photocleavage: 10:1 ratio; for DNA photocleavage (supercoiled form I to nicked form II): 20:1 BP:MC
Description: as §1, §2
as §2, with “10.” for “9.”, “[{(bpy)2Os(dpp)}2Ru(dpq)PtCl2](PF6)6.” for “[{(bpy)2Ru(dpp)}2Ru(dpq)PtCl2](PF6)6.”
as §3
A mixed-metal complex, [{(bpy)2Ru(dpp)}2Ru(dpq)PtCl2](PF6)6, was synthesized using bridging ligands dpq (2,3-bis(2-pyridyl)quinoxaline), and dpp (the ligand described in Example 1). The complex was tested for its ability to bind DNA and to photocleave the DNA in an O2 dependent manner by incubating the complex with DNA in the ambient atmosphere and under argon. […] This illustrates the metal complex binds to DNA and photocleaves DNA in a oxygen dependent manner.
A mixed-metal complex, [{(bpy)2Os(dpp)}2Ru(dpq)PtCl2](PF6)6, was synthesized using bridging ligands dpq (2,3-bis(2-pyridyl)quinoxaline), and dpp (as described in Example 3) but using osmium as a light absorbing metal component. […] This illustrates this metal complex also binds to DNA and photocleaves DNA in a oxygen dependent manner.

[3] = photolyzed under ambient atmosphere (O2)

## [{(bpy)2Os(dpp)}2Ru(dpq)PtCl2](PF6)6
[1]
  DNA binding: effective in binding to DNA
[2]; photolyzed for 1 hour under Ar
  DNA photocleavage: not in the absence of O2
[2]; [3]
  DNA photocleavage: cleaved only when O2 was present

## cis-[Pt(NH3)2Cl2] [cisplatin, reference compound]
[1]; 5:1 and 20:1 BP:MC, incubated at 37° C. for 1 hr
  DNA binding (migration of pUC18 through the gel): migration of form I of the pUC18 is retarded

## [{(bpy)2Ru(dpp)}2Ru(dpp)](PF6)6 [Ru3, reference compound]
[1]; 20:1 BP:MC, incubated at 37° C. for 1 hr
  DNA binding (migration of pUC18 through the gel): migration of the DNA is not impacted

## [{(bpy)2Ru(dpp)}2Ru(dpq)PtCl2](PF6)6
[1]
  DNA binding: effective in binding to DNA
[2]; photolyzed for 1 hour under Ar
  DNA photocleavage: not in the absence of O2
[2]; [3]
  DNA photocleavage: cleaved only when O2 was present

## [{(bpy)2Ru(dpp)}2Ru(dpp)PtCl2](PF6)6 [Ru3Pt]
[1]; Ru3Pt lane 1, 20:1 BP:MC, b60 prints incubated at 37° C. for 1 hr, FIG. 6 legend prints kept in the dark at room temperature
  DNA binding (migration of pUC18 through the gel): decreased migration of the form I pUC18 through the gel
[2]; photolyzed λ>450 nm for 1 hour, under argon
  DNA photocleavage (supercoiled form I to nicked form II): no DNA photocleavage is observed
[2]; photolyzed λirr>450 nm for 1 hour, under atmospheric conditions
  DNA photocleavage (supercoiled form I to nicked form II): appreciable conversion of the supercoiled (form 1) to nicked (form II) DNA
